The text below walks through data of PubChem BioAssay (NCI).

Common to all, as to test: growth of human tumour cells (NCI), 48 h
The test system of test [1] is SF-539 CNS.
In test [2] the test system is MDA-MB-435.
The test system of test [3] is OVCAR-4 ovarian.
For test [4], the system named is UACC-257 melanoma.
For test [5], the system named is 786-0 renal.
For test [6], the system named is OVCAR-3 ovarian.
Test [7] relates to M14 melanoma.
Test [8] relates to MCF7 breast.
Test [9] concerns CCRF-CEM leukemia.
Test [10] relates to NCI-H522 lung.
Test [11] deals with OVCAR-5 ovarian.
The test system of test [12] is MDA-MB-231 breast.
Test [13] deals with SF-295 CNS.
Test [14] deals with ACHN renal.
Test [15] relates to SK-MEL-5 melanoma.
The test system of test [16] is IGROV1 ovarian.
Test [17] relates to K-562 leukemia.
Test [18] relates to HOP-92 NSCLC.
The subject of test [19] is U251 CNS.

The structures appear in SMILES notation.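 Where inhibition never reached the appropriate level, the endpoint shown equals the highest concentration tested. Otherwise, values were interpolated linearly from a five-concentration, 48-hour dose response in 96-well plates. TGI: concentration producing complete growth inhibition.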

On to `Cc1cc(-c2ccc(Cl)cc2)c(C#N)c(=S)n1C1OC(CO)C(O)C(O)C1O` (stereo unspecified), for which the TGI in [1], in test [2], in test [3], in test [4], in test [5] and in test [6] was greater than 100 µM in each case. The TGI in [7], in test [8], in [9], in test [10], in [11] and in test [12] was greater than 100 µM throughout. Besides, the TGI in test [13], in [14], in test [15] and in [16] was greater than 100 µM in each case.

In the case of `CC1=NN(c2ccccc2)C(=O)C1C(=O)C(=O)Nc1ccc(C)cc1C` (stereo unspecified), the TGI in test [1], in test [3], in test [17], in test [4], in test [5] and in test [6] was greater than 100 µM in each case. For the same compound, the TGI in test [18], in test [7], in test [8], in test [9], in test [10] and in test [11] was greater than 100 µM each time. For the same compound, the TGI in test [13], in test [14], in test [19], in [15] and in [16] was greater than 100 µM in each case.

As to `C=CCn1c(=S)sc2c(=O)[nH]cnc21`, the TGI in test [1], in test [3], in test [17], in test [4], in [5] and in test [6] was greater than 100 µM each time. Further, the TGI in test [18], in test [7], in test [9], in test [10], in test [11] and in test [13] was greater than 100 µM throughout. Also, the TGI in test [14], in [19], in test [15] and in [16] was greater than 100 µM each time.

On to `COc1ccc(C2S/C(=C\c3cccc([N+](=O)[O-])c3)C(=O)N2NC(=O)Cc2ccccc2)cc1` (stereo unspecified), for which the TGI in test [1], in test [3], in test [17], in [4], in test [5] and in test [18] was greater than 100 µM throughout. For the same compound, the TGI in test [7], in test [9], in test [10], in test [11], in test [13] and in test [14] was greater than 100 µM each time. In addition, the TGI in [19], in test [15] and in [16] was greater than 100 µM in each case.

Turning to `Cn1c(C2CC(C)(C)c3c2c2ccccc2n3C)cc2ccccc21` (stereo unspecified), the TGI in [1], in test [17], in test [4], in [5], in test [6] and in test [18] was greater than 304 µM throughout. Moreover, the TGI in test [9], in test [10], in test [11], in test [13], in test [14] and in [19] was greater than 304 µM in each case. For the same compound, the TGI in test [15] and in test [16] was greater than 304 µM in each case.

`COC(=O)[C@]1(C)CCC[C@]2(C)C3CC4OOC3(C=C4C(C)C)CCC21` (stereo partly specified): the TGI in test [1] worked out at 30.7 µM; in [3] it was 45.7 µM; in test [17], 33.7 µM; in test [4], 32 µM; in test [5], 17.6 µM; in test [6], 76.6 µM. In addition, the TGI in test [7] was 30.4 µM; in test [9], 14 µM; in test [10] it was 3.41 µM; in test [11] it was 41.5 µM; in [13], 31.3 µM; in test [14] it was 31.2 µM. For the same compound, the TGI in test [19] was determined as 37.1 µM; in test [15] it was 29.6 µM; in test [16], 35.7 µM.

For `O=C1CSc2ccncc2N1`, the TGI in test [1], in test [3], in test [17], in [4], in [5] and in test [6] was greater than 100 µM throughout. Also, the TGI in test [7], in test [9], in [11], in [13], in [14] and in [19] was greater than 100 µM in each case. In addition, the TGI in test [15] and in [16] was greater than 100 µM in each case.

As for `N.N.N.N.O=S(=O)([O-])[O-].[Co+3].[OH3+].[OH3+]`, the TGI in test [1], in [3], in [17], in [4], in [5] and in test [6] was greater than 100 µM in each case. In addition, the TGI in test [18], in [7], in test [9], in test [10], in [11] and in test [13] was greater than 100 µM each time. Besides, the TGI in test [14], in [19], in test [15] and in [16] was greater than 100 µM throughout.

Take `COC(=O)c1c/c(=N\NC(=O)CC(=O)Nc2ccc(C)cc2)c2ccccc2o1`: the TGI in test [1], in test [3], in [17], in test [4], in test [5] and in test [6] was greater than 100 µM in each case. Besides, the TGI in [18], in test [7], in test [9], in test [10], in [11] and in test [13] was greater than 100 µM in each case. The TGI in test [14], in [19], in test [15] and in [16] was greater than 100 µM each time.

Turning to `COC1=CC(=O)C2[C@H]3Cc4ccccc4[C@H]3C2(C)C1=O` (stereo partly specified), the TGI in [1], in test [3], in test [17], in [4], in [5] and in test [6] was greater than 100 µM throughout. In addition, the TGI in test [18], in [7], in [9], in [10], in [11] and in test [13] was greater than 100 µM throughout. In addition, the TGI in test [14], in [19], in test [15] and in test [16] was greater than 100 µM in each case.

Turning to `O=C(O)CCCC#CCCCC(=O)O`, the TGI in [1], in [2], in test [3], in test [17], in test [4] and in [5] was greater than 100 µM in each case. Moreover, the TGI in test [6], in [18], in [7], in [8], in test [10] and in [11] was greater than 100 µM in each case. Moreover, the TGI in test [13], in test [14], in test [19], in [15] and in test [16] was greater than 100 µM each time.

`[O-][n+]1onc2c1-c1nonc1CC2`: the TGI in [1] was 53.4 µM; in test [2], greater than 100 µM; in test [3], 74.1 µM; in [17], greater than 100 µM; in [4] it was 59.4 µM; in [5], greater than 100 µM. The TGI was 43.8 µM in test [6]; 89.8 µM in test [7]; greater than 100 µM in [8]; greater than 100 µM in [9]; 95.1 µM in test [10]; greater than 100 µM in [11]. For the same compound, the TGI in test [12] is 69.2 µM; in [13], greater than 100 µM; in [14] it was 88.2 µM; in test [19], greater than 100 µM; in test [15], 78.6 µM; in [16], greater than 100 µM.

In the case of `CC(C)(C)C1=NN=C2c3ccccc3C(=O)C21` (stereo unspecified), the TGI in [1], in test [2], in test [3], in test [17], in [4] and in test [5] was greater than 100 µM each time. Further, the TGI is greater than 100 µM in test [6]; 63.7 µM in test [18]; greater than 100 µM in test [7]; greater than 100 µM in [8]; greater than 100 µM in test [9]; greater than 100 µM in [10]. The TGI is greater than 100 µM in test [11]; greater than 100 µM in test [12]; greater than 100 µM in test [13]; greater than 100 µM in [14]; greater than 100 µM in test [19]; 54.3 µM in test [15]. For the same compound, the TGI in test [16] was greater than 100 µM.

Consider `CC(C)[C@H](NC(=O)[C@@H](O)[C@H](N)Cc1ccccc1)C(=O)N[C@@H](Cc1ccccc1)C(=O)O`, for which the TGI in [2], in test [3], in test [17], in test [4], in test [5] and in [6] was greater than 100 µM throughout. Also, the TGI in test [18], in test [7], in test [8], in [9], in test [10] and in [11] was greater than 100 µM in each case. In addition, the TGI in [12], in test [13], in test [14], in test [19], in [15] and in test [16] was greater than 100 µM each time.

As to `CCCN1CN(C(C(=O)N[C@@H]2C(=O)N3C(C(=O)O)=C(C)CSC23)c2ccccc2)CSC1=S` (stereo partly specified), the TGI in test [1], in test [3], in test [17], in [4], in test [5] and in test [6] was greater than 100 µM in each case. Further, the TGI in test [18], in [7], in test [9], in test [10], in [11] and in [13] was greater than 100 µM throughout. In addition, the TGI in test [14], in test [19], in test [15] and in test [16] was greater than 100 µM throughout.

As for `COc1ccc(-n2nnnc2C2(Nc3ccccc3)CCN(Cc3ccccc3)CC2)cc1`, the TGI is 34.6 µM in [1]; 15.4 µM in test [2]; greater than 100 µM in [3]; 15.4 µM in test [17]; 28.9 µM in test [4]; 28 µM in [5]. Moreover, the TGI in test [7] was 32 µM; in test [8], 23.3 µM; in test [9], greater than 100 µM; in test [11], 48.8 µM; in test [12], 32.3 µM; in test [13], 28.9 µM. Besides, the TGI in test [14] is greater than 100 µM; in test [19], greater than 100 µM; in [15], 24.6 µM; in test [16], 41.2 µM.

In the case of `Clc1cccc(Cl)c1C1SCc2nc3ncccc3n21` (stereo unspecified), the TGI in test [1], in [2], in [3], in test [17], in test [4] and in [5] was greater than 100 µM in each case. Further, the TGI in [6], in test [7], in test [9], in test [10], in test [11] and in test [12] was greater than 100 µM throughout. Further, the TGI in test [13], in test [14], in [19], in test [15] and in test [16] was greater than 100 µM throughout.
